Laboratory results taken from patent US9725465B2, “Biaryl acetamide compounds and methods of use thereof” (Ambit Biosciences Corporation, priority 2013, dated 2017).
Structures can show the parent of a compound that is named as a salt.

What was measured:
[1] = target: FLT3-ITD (Homo sapiens (Human), UniProt P36888, INS600HVDFREYEYD); assay: pFLT3 MSD assay, Ba/F3 FLT3-ITD; type: cell-based; details: Ba/F3 FLT3-ITD cells, 2 hours, read-out: BaF3-FLT3-ITD pFlt3 IC50
[2] = target: FLT3 kinase (Homo sapiens (Human), UniProt P36888); assay: Competition binding assay (Kd), FLT3; details: competition binding assay
Chain of FLT3 kinase (P36888 27-993): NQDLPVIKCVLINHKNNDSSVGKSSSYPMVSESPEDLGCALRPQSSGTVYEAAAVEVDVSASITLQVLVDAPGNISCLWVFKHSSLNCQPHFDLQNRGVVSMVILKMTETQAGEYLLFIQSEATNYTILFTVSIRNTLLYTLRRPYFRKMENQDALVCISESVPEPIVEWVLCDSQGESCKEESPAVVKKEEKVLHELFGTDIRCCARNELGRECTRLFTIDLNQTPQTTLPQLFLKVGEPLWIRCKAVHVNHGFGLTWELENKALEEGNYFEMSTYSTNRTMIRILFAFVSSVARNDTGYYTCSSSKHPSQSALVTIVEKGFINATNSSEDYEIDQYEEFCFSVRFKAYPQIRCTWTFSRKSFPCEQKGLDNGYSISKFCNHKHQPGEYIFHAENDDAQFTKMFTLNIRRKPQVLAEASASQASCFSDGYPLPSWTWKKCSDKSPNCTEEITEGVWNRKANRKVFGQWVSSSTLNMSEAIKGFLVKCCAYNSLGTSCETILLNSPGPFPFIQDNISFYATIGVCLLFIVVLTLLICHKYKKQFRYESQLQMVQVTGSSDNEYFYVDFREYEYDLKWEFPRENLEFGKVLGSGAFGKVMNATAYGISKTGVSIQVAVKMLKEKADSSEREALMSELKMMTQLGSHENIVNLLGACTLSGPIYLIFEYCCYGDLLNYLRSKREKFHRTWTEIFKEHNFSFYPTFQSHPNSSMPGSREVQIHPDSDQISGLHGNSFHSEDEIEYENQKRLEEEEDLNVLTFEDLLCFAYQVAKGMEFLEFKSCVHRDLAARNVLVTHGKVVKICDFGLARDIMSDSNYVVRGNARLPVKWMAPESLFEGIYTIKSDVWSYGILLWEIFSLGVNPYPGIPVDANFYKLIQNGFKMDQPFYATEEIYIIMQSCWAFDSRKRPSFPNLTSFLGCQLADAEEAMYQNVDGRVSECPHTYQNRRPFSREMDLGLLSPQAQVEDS

[3] = target: KIT kinase (Homo sapiens (Human), UniProt P10721); assay: Competition binding assay (Kd), KIT; details: competition binding assay
Chain of KIT kinase (P10721 26-976): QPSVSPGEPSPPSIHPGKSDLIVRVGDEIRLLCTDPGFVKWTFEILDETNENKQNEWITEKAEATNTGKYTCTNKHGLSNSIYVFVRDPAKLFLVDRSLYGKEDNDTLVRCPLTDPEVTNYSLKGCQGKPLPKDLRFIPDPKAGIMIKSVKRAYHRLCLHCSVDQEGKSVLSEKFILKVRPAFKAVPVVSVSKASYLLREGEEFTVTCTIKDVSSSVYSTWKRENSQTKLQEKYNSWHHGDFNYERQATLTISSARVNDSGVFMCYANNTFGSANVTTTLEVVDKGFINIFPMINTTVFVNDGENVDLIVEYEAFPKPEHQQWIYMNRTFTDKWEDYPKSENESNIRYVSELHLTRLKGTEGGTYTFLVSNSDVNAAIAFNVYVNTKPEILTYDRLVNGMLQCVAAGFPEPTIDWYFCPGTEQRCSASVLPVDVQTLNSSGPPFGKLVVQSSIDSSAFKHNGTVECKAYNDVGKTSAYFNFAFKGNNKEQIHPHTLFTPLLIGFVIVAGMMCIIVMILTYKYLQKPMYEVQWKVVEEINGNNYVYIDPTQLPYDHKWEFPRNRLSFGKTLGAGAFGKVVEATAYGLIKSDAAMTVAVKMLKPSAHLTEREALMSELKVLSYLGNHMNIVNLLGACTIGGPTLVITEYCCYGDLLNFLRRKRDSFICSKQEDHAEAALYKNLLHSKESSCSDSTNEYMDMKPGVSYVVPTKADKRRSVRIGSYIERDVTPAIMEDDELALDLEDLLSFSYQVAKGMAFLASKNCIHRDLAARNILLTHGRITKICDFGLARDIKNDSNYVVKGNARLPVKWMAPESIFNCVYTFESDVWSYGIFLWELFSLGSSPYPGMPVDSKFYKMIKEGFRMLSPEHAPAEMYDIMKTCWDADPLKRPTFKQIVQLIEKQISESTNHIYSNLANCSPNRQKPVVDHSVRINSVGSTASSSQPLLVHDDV
Procedure, shortened: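 Kinase, as T7 phage fusion or HEK-293-expressed DNA-tagged protein, competed off immobilised ligand beads by test compound (eleven-point threefold dilutions, from 100× DMSO stocks). Eluted kinase quantified by qPCR to derive Kd; DMSO used as control.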

Chain of FLT3-ITD (P36888 other isoform, or with tags, fused parts or gaps limits assumed, stated change not applied): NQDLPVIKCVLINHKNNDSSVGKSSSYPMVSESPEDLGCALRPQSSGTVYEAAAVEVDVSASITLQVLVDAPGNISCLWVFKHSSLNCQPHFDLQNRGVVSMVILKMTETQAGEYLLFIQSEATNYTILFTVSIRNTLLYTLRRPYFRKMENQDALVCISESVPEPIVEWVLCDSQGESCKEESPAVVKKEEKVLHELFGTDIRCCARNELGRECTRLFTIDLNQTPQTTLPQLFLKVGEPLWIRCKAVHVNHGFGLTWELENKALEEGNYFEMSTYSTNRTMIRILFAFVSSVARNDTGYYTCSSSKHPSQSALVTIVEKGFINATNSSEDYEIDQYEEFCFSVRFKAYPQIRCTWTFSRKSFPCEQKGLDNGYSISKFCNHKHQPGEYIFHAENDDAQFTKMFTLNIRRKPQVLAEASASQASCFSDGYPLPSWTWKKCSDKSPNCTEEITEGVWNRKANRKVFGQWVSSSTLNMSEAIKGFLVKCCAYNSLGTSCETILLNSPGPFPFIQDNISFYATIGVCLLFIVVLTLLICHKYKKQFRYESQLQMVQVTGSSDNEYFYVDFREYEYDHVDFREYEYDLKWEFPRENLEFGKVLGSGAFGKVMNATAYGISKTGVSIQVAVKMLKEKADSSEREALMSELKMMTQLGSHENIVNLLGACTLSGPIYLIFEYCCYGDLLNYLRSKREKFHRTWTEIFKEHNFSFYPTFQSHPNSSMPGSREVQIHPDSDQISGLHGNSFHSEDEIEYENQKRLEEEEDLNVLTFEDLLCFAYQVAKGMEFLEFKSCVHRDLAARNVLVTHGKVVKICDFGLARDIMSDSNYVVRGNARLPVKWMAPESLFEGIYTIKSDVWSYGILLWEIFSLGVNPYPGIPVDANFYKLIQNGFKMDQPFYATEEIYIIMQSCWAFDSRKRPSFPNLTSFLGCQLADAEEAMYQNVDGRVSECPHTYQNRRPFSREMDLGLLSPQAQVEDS

| IC50 [1] | Kd [2] | Kd [3] | Structure (SMILES) |
| --- | --- | --- | --- |
| < 10 nM | < 5 nM | < 5 nM | COc1cc2nc(-c3ccc(CC(=O)Nc4cc(C(C)(C)C(F)(F)F)on4)c(F)c3)cnc2cc1OCCO [Example 165, 2-[2-fluoro-4-[6-(2-hydroxyethoxy)-7-methoxy-quinoxalin-2-yl]phenyl]-N-[5-(2,2,2-trifluoro-1,1-dimethyl-ethyl)isoxazol-3-yl]acetamide] |
| < 10 nM | < 5 nM | < 5 nM | CN1CCN(C(=O)c2cc3cc(-c4ccc(CC(=O)Nc5cc(C(C)(C)C)on5)cc4)cnc3[nH]2)CC1 [Example 99, N-(5-tert-butylisoxazol-3-yl)-2-[4-[2-(4-methylpiperazine-1-carbonyl)-1H-pyrrolo[2,3-b]pyridin-5-yl]phenyl]acetamide] |
| < 10 nM | < 5 nM | < 5 nM | COc1cc2nc(Cl)c(-c3ccc(CC(=O)Nc4cc(C5(C(F)(F)F)CC5)on4)c(F)c3)nc2cc1OC [Example 146, 2-[4-(3-chloro-6,7-dimethoxy-quinoxalin-2-yl)-2-fluoro-phenyl]-N-[5-[1-(trifluoromethyl)cyclo-propyl]isoxazol-3-yl]acetamide] |
| < 10 nM | < 5 nM | < 5 nM | CNC(=O)c1cc2cc(-c3ccc(CC(=O)Nc4cc(C(C)(C)C)on4)cc3)cnc2[nH]1 [Example 65, 5-(4-(2-((5-(tert-butyl)isoxazol-3-yl)amino)-2-oxoethyl)phenyl)-N-methyl-1H-pyrrolo[2,3-b]pyridine-2-carboxamide] |
| < 10 nM | < 5 nM | < 5 nM | O=C(Cc1ccc(-c2cnc3[nH]c(C(=O)NC4CNC4)cc3c2)cc1F)Nc1cc(C2(C(F)(F)F)CC2)on1 [Example 112, N-(azetidin-3-yl)-5-[3-fluoro-4-[2-oxo-2-[[5-[1-(trifluoromethyl)cyclo-propyl]isoxazol-3-yl]amino]ethyl]phenyl]-1H-pyrrolo[2,3-b]pyridine-2-carboxamide] |
| < 10 nM | < 5 nM | < 5 nM | CC(C)(C)c1cc(NC(=O)Cc2ccc(-c3cnc4[nH]nc(-n5ccnn5)c4c3)cc2)no1 [Example 103, N-(5-tert-butylisoxazol-3-yl)-2-[4-[3-(triazol-1-yl)-1H-pyrazolo[3,4-b]pyridin-5-yl]phenyl]acetamide] |
| < 10 nM | < 5 nM | < 5 nM | COc1cc2cc(-c3ccc(CC(=O)Nc4cc(C5(C(F)(F)F)CC5)on4)c(F)c3)cnc2cc1OC [Example 128, 2-[4-(6,7-dimethoxy-3-quinolyl)-2-fluoro-phenyl]-N-[5-[1-(trifluoro-methyl)cyclopropyl]isoxazol-3-yl]acetamide] |
| < 10 nM | < 5 nM | < 5 nM | CC(C)(c1cc(NC(=O)Cc2ccc(-c3cnc4c(N)cccc4c3)cc2F)no1)C(F)(F)F [Example 151, 2-[4-(8-amino-3-quinolyl)-2-fluoro-phenyl]-N-[5-(2,2,2-trifluoro-1,1-dimethyl-ethyl)isoxazol-3-yl]acetamide] |
| < 10 nM | < 5 nM | < 5 nM | COc1cc2ncc(-c3ccc(CC(=O)Nc4cc(C(C)(C)C(F)(F)F)on4)cc3)nc2cc1OC [Example 8, 2-(4-(6,7-dimethoxyquinoxalin-2-yl)phenyl)-N-(5-(1,1,1-trifluoro-2-methylpropan-2-yl)isoxazol-3-yl)acetamide] |
| < 10 nM |  | 5 to 20 nM | COc1cc2nc(-c3ccc(CC(=O)Nc4cc(C5(C(F)(F)F)CC5)on4)c(F)c3)cnc2cc1OC1CNC1 [Example 89, 2-(4-(6-(azetidin-3-yloxy)-7-methoxyquinoxalin-2-yl)-2-fluorophenyl)-N-(5-(1-(trifluoromethyl)cyclopropyl)isoxazol-3-yl)acetamide] |
| < 10 nM |  |  | COc1cc2ncc(-c3ccc(CC(=O)Nc4cc(C(C)(C)C)on4)c(F)c3)nc2cc1OC [Example 43, N-(5-(tert-butyl)isoxazol-3-yl)-2-(4-(6,7-dimethoxyquinoxalin-2-yl)-2-fluorophenyl)acetamide] |
| < 10 nM |  |  | CC(C)(C)c1cc(NC(=O)Cc2ccc(-c3cnc4[nH]nc(C#N)c4c3)cc2)no1 [Example 37, N-(5-(tert-butyl)isoxazol-3-yl)-2-(4-(3-cyano-1H-pyrazolo[3,4-b]pyridin-5-yl)phenyl)acetamide] |
| < 10 nM |  | < 5 nM | O=C(Cc1ccc(-c2cnc3[nH]ncc3c2)cc1)Nc1cc(C2(C(F)(F)F)CC2)on1 [Example 15, 2-(4-(1H-pyrazolo[3,4-b]pyridin-5-yl)phenyl)-N-(5-(1-(trifluoromethyl)cyclopropyl)isoxazol-3-yl)acetamide] |
| < 10 nM |  | < 5 nM | O=C(Cc1ccc(-c2cnc3[nH]ccc3c2)cc1)Nc1cc(C2(C(F)(F)F)CC2)on1 [Example 18, 2-(4-(1H-pyrrolo[2,3-b]pyridin-5-yl)phenyl)-N-(5-(1-(trifluoromethyl)cyclopropyl)isoxazol-3-yl)acetamide] |
| < 10 nM |  |  | CN(C)Cc1c[nH]c2ncc(-c3ccc(CC(=O)Nc4cc(C(C)(C)C)on4)cc3)cc12 [Example 59, N-(5-(tert-butyl)isoxazol-3-yl)-2-(4-(3-((dimethylamino)methyl)-1H-pyrrolo[2,3-b]pyridin-5-yl)phenyl)acetamide formate salt] |
| < 10 nM |  |  | CC(C)(c1cc(NC(=O)Cc2ccc(-c3cnc4[nH]ncc4c3)cc2F)no1)C(F)(F)F [Example 34, 2-(2-fluoro-4-(1H-pyrazolo[3,4-b]pyridin-5-yl)phenyl)-N-(5-(1,1,1-trifluoro-2-methylpropan-2-yl)isoxazol-3-yl)acetamide] |
| < 10 nM |  |  | O=C(Cc1ccc(-c2cnc3[nH]ccc3n2)cc1F)Nc1cc(C2(C(F)(F)F)CC2)on1 [Example 30, 2-(2-fluoro-4-(5H-pyrrolo[2,3-b]pyrazin-2-yl)phenyl)-N-(5-(1-(trifluoromethyl)cyclopropyl)isoxazol-3-yl)acetamide] |
| < 10 nM |  |  | CC(C)(C)c1cc(NC(=O)Cc2ccc(-c3cnc4[nH]nc(Cl)c4c3)cc2)no1 [Example 38, N-(5-(tert-butyl)isoxazol-3-yl)-2-(4-(3-chloro-1H-pyrazolo[3,4-b]pyridin-5-yl)phenyl)acetamide] |
| < 10 nM |  |  | COc1cc2ncc(-c3ccc(CC(=O)Nc4cc(C(C)(C)C)no4)cc3)nc2cc1OC [Example 73, N-(3-(tert-butyl)isoxazol-5-yl)-2-(4-(6,7-dimethoxyquinoxalin-2-yl)phenyl)acetamide] |
| < 10 nM |  |  | Cc1n[nH]c2ncc(-c3ccc(CC(=O)Nc4cc(C(C)(C)C)on4)cc3)cc12 [Example 40, N-(5-(tert-butyl)isoxazol-3-yl)-2-(4-(3-methyl-1H-pyrazolo[3,4-b]pyridin-5-yl)phenyl)acetamide] |
| < 10 nM |  |  | CC(C)(c1cc(NC(=O)Cc2ccc(-c3cnc4[nH]ncc4c3)cc2)no1)C(F)(F)F [Example 44, 2-(4-(1H-pyrazolo[3,4-b]pyridin-5-yl)phenyl)-N-(5-(1,1,1-trifluoro-2-methylpropan-2-yl)isoxazol-3-yl)acetamide] |
| < 10 nM |  |  | CCOc1n[nH]c2ncc(-c3ccc(CC(=O)Nc4cc(C(C)(C)C(F)(F)F)on4)cc3)cc12 [Example 39, 2-(4-(3-ethoxy-1H-pyrazolo[3,4-b]pyridin-5-yl)phenyl)-N-(5-(1,1,1-trifluoro-2-methylpropan-2-yl)isoxazol-3-yl)acetamide] |
